From ChEMBL document CHEMBL2440108, “Synthesis and enzymatic evaluation of phosphoramidon and its β anomer: Anomerization of α-l-rhamnose triacetate upon phosphitylation” (Bioorg Med Chem, 2013)

Columns and labels:
Thermolysin [1] = biological target: T1, Thermolysin (Bacillus thermoproteolyticus, UniProt P00800); experiment: Binding affinity to Bacillus thermoproteolyticus thermolysin at pH 7.5 after 15 mins by fluorescence spectrophotometry
T1 sequence (P00800 whole entry): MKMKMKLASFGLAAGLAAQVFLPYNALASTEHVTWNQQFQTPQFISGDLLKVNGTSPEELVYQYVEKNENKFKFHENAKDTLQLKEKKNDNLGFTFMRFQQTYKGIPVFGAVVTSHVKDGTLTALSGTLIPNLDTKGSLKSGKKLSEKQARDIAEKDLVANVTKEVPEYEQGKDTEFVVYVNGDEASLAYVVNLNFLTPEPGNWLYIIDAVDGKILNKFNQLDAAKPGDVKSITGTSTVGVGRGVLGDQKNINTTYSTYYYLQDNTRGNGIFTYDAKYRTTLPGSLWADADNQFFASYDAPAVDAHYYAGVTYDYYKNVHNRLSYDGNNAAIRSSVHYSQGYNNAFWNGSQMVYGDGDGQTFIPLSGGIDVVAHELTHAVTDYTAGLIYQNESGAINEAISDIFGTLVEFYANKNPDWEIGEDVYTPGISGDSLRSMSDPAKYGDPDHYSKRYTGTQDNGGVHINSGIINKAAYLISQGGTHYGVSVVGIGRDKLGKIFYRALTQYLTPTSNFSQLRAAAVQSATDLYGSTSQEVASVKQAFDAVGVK

Thermolysin [2] = biological target: T1, Thermolysin; experiment: Inhibition of Bacillus thermoproteolyticus thermolysin using […] as substrate at pH 7.5 after 15 mins by Henderson plot analysis
Thermolysin [3] = biological target: T1, Thermolysin; experiment: Inhibition of Bacillus thermoproteolyticus thermolysin
[4] = Inhibition of endothelin-converting enzyme (unknown origin); design: species or system Homo sapiens

Row | SMILES | Kd (Thermolysin [1]) | Ki (Thermolysin [2]) | Ki (Thermolysin [3]) | IC50 [4]
1 | CC(C)C[C@H](NP(=O)(O)O[C@H]1O[C@@H](C)[C@H](O)[C@@H](O)[C@H]1O)C(=O)N[C@@H](Cc1c[nH]c2ccccc12)C(=O)O | 210 nM | 280 nM | – | –
2 | CC(C)C[C@H](NP(=O)(O)O[C@@H]1O[C@@H](C)[C@H](O)[C@@H](O)[C@H]1O)C(=O)N[C@@H](Cc1c[nH]c2ccccc12)C(=O)O | – | 30 nM | 32 nM | 690 nM
